Reference: ChEMBL document CHEMBL1143118, “6-Acetyl-7,7-dimethyl-5,6,7,8-tetrahydropterin is an activator of nitric oxide synthases” (Bioorg Med Chem Lett, 2008)
Active and inactive are the calls of the source. The rule behind the calls is not given here.

Tests used:
[1] = target: Nitric oxide synthase 1 (Homo sapiens) (UniProt P29475); assay: Activity of tetrahydrobiopterin free nNOS assessed as increase in NO in presence of NADPH and arginine at 1 to 200 uM
Aortic ring [2] = assay: Relaxation of phenyphrine-induced constriction in rat aortic rings; format: functional, tissue-based; conditions: Aorta
Aortic ring [3] = assay: Relaxation of phenyphrine-induced constriction in rat aortic rings depleted with tetrahydrobiopterin; format: functional, tissue-based; conditions: Aorta
[4] = target: Nitric oxide synthase 1 (Homo sapiens) (UniProt P29475); assay: Activity of tetrahydrobiopterin free nNOS expressed in Escherichia coli at 1 to 100 uM

Nitric oxide synthase 1 (Homo sapiens), sequence (P29475 whole entry): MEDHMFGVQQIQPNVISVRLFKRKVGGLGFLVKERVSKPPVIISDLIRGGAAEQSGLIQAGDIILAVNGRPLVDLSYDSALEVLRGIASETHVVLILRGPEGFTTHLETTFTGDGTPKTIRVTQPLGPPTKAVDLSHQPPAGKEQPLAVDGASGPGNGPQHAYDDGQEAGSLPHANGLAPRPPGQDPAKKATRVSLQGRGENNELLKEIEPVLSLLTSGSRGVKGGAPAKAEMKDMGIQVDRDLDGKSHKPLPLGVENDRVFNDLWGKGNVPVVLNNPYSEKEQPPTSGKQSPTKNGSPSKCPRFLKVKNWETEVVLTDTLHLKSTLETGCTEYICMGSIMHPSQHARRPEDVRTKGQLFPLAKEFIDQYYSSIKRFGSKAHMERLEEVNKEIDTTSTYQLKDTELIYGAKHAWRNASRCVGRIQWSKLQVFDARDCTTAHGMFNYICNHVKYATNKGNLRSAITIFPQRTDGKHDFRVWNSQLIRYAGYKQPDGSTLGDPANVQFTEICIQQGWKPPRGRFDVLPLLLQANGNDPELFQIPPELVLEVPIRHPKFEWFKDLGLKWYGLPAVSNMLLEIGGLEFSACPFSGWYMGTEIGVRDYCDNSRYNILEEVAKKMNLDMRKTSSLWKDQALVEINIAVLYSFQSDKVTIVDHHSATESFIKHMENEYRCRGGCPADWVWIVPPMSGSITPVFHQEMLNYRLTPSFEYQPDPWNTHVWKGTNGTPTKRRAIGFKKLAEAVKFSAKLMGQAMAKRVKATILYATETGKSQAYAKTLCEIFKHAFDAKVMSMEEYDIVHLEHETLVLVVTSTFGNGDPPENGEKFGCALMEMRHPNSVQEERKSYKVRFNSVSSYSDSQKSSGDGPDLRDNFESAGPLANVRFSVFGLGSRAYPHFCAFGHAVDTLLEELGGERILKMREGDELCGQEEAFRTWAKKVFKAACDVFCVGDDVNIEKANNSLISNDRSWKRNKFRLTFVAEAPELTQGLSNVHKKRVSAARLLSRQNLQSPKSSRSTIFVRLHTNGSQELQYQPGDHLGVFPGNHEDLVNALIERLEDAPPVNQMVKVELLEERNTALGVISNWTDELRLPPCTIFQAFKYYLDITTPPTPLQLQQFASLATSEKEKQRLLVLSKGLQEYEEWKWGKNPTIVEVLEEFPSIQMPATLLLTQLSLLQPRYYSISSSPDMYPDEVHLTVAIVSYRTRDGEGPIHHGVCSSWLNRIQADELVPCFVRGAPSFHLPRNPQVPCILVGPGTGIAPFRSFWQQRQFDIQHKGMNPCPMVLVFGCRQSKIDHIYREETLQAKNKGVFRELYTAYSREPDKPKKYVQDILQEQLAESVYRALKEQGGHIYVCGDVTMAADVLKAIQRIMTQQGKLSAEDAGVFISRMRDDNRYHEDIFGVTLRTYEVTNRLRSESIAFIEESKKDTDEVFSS

CC(=O)C1Nc2c(nc(N)[nH]c2=O)NC1(C)C (centres undefined)
Activity [1]: Active

C[C@H](O)[C@H](O)[C@H]1CNc2nc(N)[nH]c(=O)c2N1
Activity (Aortic ring [2]): inactive

CC(=O)C1=Nc2c(nc(N)[nH]c2=O)NC1(C)C
Activity (Aortic ring [3]): Active | Activity [4]: inactive
